Test results from patent publication US20230085307A1, “PYRIDAZINONE COMPOUND AND HERBICIDE” (NISSAN CHEMICAL CORPORATION, priority 2019, published 2023).

How the values were obtained:
[1] = system: southern crabgrass; assay: Test Example 4: herbicidal effect by soil treatment (Table 19, symbol F); assay type: in vivo, southern crabgrass (Digitaria ciliaris); settings: amount of applied herbicide 320 g/ha
Procedure, shortened: (§1)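 In this soil treatment, the formulated compound reached the seeds only through the soil: seeds were buried about 1.5 cm deep in sterilized diluvial soil, then the diluted emulsion was sprayed over the surface. After three weeks at 25° C. to 30° C. in a greenhouse, effects were graded on criteria from an earlier test.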

[2] = system: green foxtail; assay: Test Example 4: herbicidal effect by soil treatment (Table 19, symbol G); assay type: in vivo, green foxtail (Setaria viridis); settings: amount of applied herbicide 320 g/ha
Procedure, shortened: as §1

[3] = system: barnyard grass; assay: Test Example 4: herbicidal effect by soil treatment (Table 19, symbol H); assay type: in vivo, barnyard grass (Echinochloa crus-galli); settings: amount of applied herbicide 320 g/ha
Procedure, shortened: as §1

[4] = system: wild oat; assay: Test Example 4: herbicidal effect by soil treatment (Table 19, symbol I); assay type: in vivo, wild oat (Avena fatua); settings: amount of applied herbicide 320 g/ha
Procedure, shortened: as §1

[5] = system: blackgrass; assay: Test Example 4: herbicidal effect by soil treatment (Table 19, symbol J); assay type: in vivo, blackgrass (Alopecurus myosuroides); settings: amount of applied herbicide 320 g/ha
Procedure, shortened: as §1

[6] = system: Italian ryegrass; assay: Test Example 4: herbicidal effect by soil treatment (Table 19, symbol K); assay type: in vivo, Italian ryegrass (Lolium multiflorum); settings: amount of applied herbicide 320 g/ha
Procedure, shortened: as §1

[7] = system: windgrass; assay: Test Example 4: herbicidal effect by soil treatment (Table 19, symbol L); assay type: in vivo, windgrass (Apera spica-venti); settings: amount of applied herbicide 320 g/ha
Procedure, shortened: as §1

[8] = system: velvetleaf; assay: Test Example 4: herbicidal effect by soil treatment (Table 19, symbol M); assay type: in vivo, velvetleaf (Abutilon theophrasti); settings: amount of applied herbicide 320 g/ha
Procedure, shortened: as §1

[9] = system: redroot pigweed; assay: Test Example 4: herbicidal effect by soil treatment (Table 19, symbol N); assay type: in vivo, redroot pigweed (Amaranthus retroflexus); settings: amount of applied herbicide 320 g/ha
Procedure, shortened: as §1

[10] = system: lambsquarters; assay: Test Example 4: herbicidal effect by soil treatment (Table 19, symbol O); assay type: in vivo, lambsquarters (Chenopodium album); settings: amount of applied herbicide 320 g/ha
Procedure, shortened: as §1

[11] = system: chickweed; assay: Test Example 4: herbicidal effect by soil treatment (Table 19, symbol P); assay type: in vivo, common chickweed (Stellaria media); settings: amount of applied herbicide 320 g/ha
Procedure, shortened: as §1

[12] = system: false cleavers; assay: Test Example 4: herbicidal effect by soil treatment (Table 19, symbol Q); assay type: in vivo, false cleavers (Galium spurium); settings: amount of applied herbicide 320 g/ha
Procedure, shortened: as §1

[13] = system: southern crabgrass; assay: Test Example 5: herbicidal effect by foliage application, plastic box (Table 20, symbol F); assay type: in vivo, southern crabgrass (Digitaria ciliaris); settings: foliage application, 320 g/ha, evaluated three weeks after application
Procedure, shortened: (§2)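 Plants were sown into sterilized diluvial soil under about 1.5 cm cover and kept in a greenhouse at 25° C. to 30° C. Fourteen days on, foliage received an even spray of the diluted emulsion. Herbicidal or crop effect was judged three weeks afterwards.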

[14] = system: green foxtail; assay: Test Example 5: herbicidal effect by foliage application, plastic box (Table 20, symbol G); assay type: in vivo, green foxtail (Setaria viridis); settings: foliage application, 320 g/ha, evaluated three weeks after application
Procedure, shortened: as §2

[15] = system: barnyard grass; assay: Test Example 5: herbicidal effect by foliage application, plastic box (Table 20, symbol H); assay type: in vivo, barnyard grass (Echinochloa crus-galli); settings: foliage application, 320 g/ha, evaluated three weeks after application
Procedure, shortened: as §2

[16] = system: wild oat; assay: Test Example 5: herbicidal effect by foliage application, plastic box (Table 20, symbol I); assay type: in vivo, wild oat (Avena fatua); settings: foliage application, 320 g/ha, evaluated three weeks after application
Procedure, shortened: as §2

[17] = system: blackgrass; assay: Test Example 5: herbicidal effect by foliage application, plastic box (Table 20, symbol J); assay type: in vivo, blackgrass (Alopecurus myosuroides); settings: foliage application, 320 g/ha, evaluated three weeks after application
Procedure, shortened: as §2

[18] = system: Italian ryegrass; assay: Test Example 5: herbicidal effect by foliage application, plastic box (Table 20, symbol K); assay type: in vivo, Italian ryegrass (Lolium multiflorum); settings: foliage application, 320 g/ha, evaluated three weeks after application
Procedure, shortened: as §2

[19] = system: windgrass; assay: Test Example 5: herbicidal effect by foliage application, plastic box (Table 20, symbol L); assay type: in vivo, windgrass (Apera spica-venti); settings: foliage application, 320 g/ha, evaluated three weeks after application
Procedure, shortened: as §2

[20] = system: velvetleaf; assay: Test Example 5: herbicidal effect by foliage application, plastic box (Table 20, symbol M); assay type: in vivo, velvetleaf (Abutilon theophrasti); settings: foliage application, 320 g/ha, evaluated three weeks after application
Procedure, shortened: as §2

[21] = system: redroot pigweed; assay: Test Example 5: herbicidal effect by foliage application, plastic box (Table 20, symbol N); assay type: in vivo, redroot pigweed (Amaranthus retroflexus); settings: foliage application, 320 g/ha, evaluated three weeks after application
Procedure, shortened: as §2

[22] = system: lambsquarters; assay: Test Example 5: herbicidal effect by foliage application, plastic box (Table 20, symbol O); assay type: in vivo, lambsquarters (Chenopodium album); settings: foliage application, 320 g/ha, evaluated three weeks after application
Procedure, shortened: as §2

[23] = system: chickweed; assay: Test Example 5: herbicidal effect by foliage application, plastic box (Table 20, symbol P); assay type: in vivo, common chickweed (Stellaria media); settings: foliage application, 320 g/ha, evaluated three weeks after application
Procedure, shortened: as §2

[24] = system: false cleavers; assay: Test Example 5: herbicidal effect by foliage application, plastic box (Table 20, symbol Q); assay type: in vivo, false cleavers (Galium spurium); settings: foliage application, 320 g/ha, evaluated three weeks after application
Procedure, shortened: as §2

[25] = system: persian speedwell; assay: Test Example 5: herbicidal effect by foliage application, plastic box (Table 20, symbol R); assay type: in vivo, Persian speedwell (Veronica persica); settings: foliage application, 320 g/ha, evaluated three weeks after application
Procedure, shortened: as §2

COc1cccc(OC)c1-c1sc2ccc(Cl)cc2c1-c1c(O)c(C)nn(C)c1=O [2-121]
F: southern crabgrass, herbicidal effect rating [1]: 0 (Herbicidal rate of 5% or less (almost no effect)) | G: green foxtail, herbicidal effect rating [2]: 0 (Herbicidal rate of 5% or less (almost no effect)) | H: barnyard grass, herbicidal effect rating [3]: 0 (Herbicidal rate of 5% or less (almost no effect)) | I: wild oat, herbicidal effect rating [4]: 0 (Herbicidal rate of 5% or less (almost no effect)) | J: blackgrass, herbicidal effect rating [5]: 0 (Herbicidal rate of 5% or less (almost no effect)) | K: Italian ryegrass, herbicidal effect rating [6]: 0 (Herbicidal rate of 5% or less (almost no effect)) | L: windgrass, herbicidal effect rating [7]: 0 (Herbicidal rate of 5% or less (almost no effect)) | M: velvetleaf, herbicidal effect rating [8]: 0 (Herbicidal rate of 5% or less (almost no effect)) | N: redroot pigweed, herbicidal effect rating [9]: 0 (Herbicidal rate of 5% or less (almost no effect)) | O: lambsquarters, herbicidal effect rating [10]: 0 (Herbicidal rate of 5% or less (almost no effect)) | P: chickweed, herbicidal effect rating [11]: 3 (Herbicidal rate of 40% or more and less than 70%) | Q: false cleavers, herbicidal effect rating [12]: 0 (Herbicidal rate of 5% or less (almost no effect)) | herbicidal effect on F: southern crabgrass [13]: 0 (Herbicidal rate of 5% or less (almost no effect)) | herbicidal effect on G: green foxtail [14]: 0 (Herbicidal rate of 5% or less (almost no effect)) | herbicidal effect on H: barnyard grass [15]: 0 (Herbicidal rate of 5% or less (almost no effect)) | herbicidal effect on I: wild oat [16]: 0 (Herbicidal rate of 5% or less (almost no effect)) | herbicidal effect on J: blackgrass [17]: 0 (Herbicidal rate of 5% or less (almost no effect)) | herbicidal effect on K: Italian ryegrass [18]: 0 (Herbicidal rate of 5% or less (almost no effect)) | herbicidal effect on L: windgrass [19]: 0 (Herbicidal rate of 5% or less (almost no effect)) | herbicidal effect on M: velvetleaf [20]: 0 (Herbicidal rate of 5% or less (almost no effect)) | herbicidal effect on N: redroot pigweed [21]: 0 (Herbicidal rate of 5% or less (almost no effect)) | herbicidal effect on O: lambsquarters [22]: 0 (Herbicidal rate of 5% or less (almost no effect)) | herbicidal effect on P: chickweed [23]: 3 (Herbicidal rate of 40% or more and less than 70%) | herbicidal effect on Q: false cleavers [24]: 2 (Herbicidal rate of 20% or more and less than 40%) | herbicidal effect on R: persian speedwell [25]: 0 (Herbicidal rate of 5% or less (almost no effect))
